Legend:
Assay type in all cases: cell-based, human
CEM/C1 = test: XTT viability assay, CEM/C1; details: 1-day treatment, compared with Jurkat (>10 μM)
Protocol: (§1) Figure 1 AD2900 inhibits human lymphocyte proliferation in allogeneic activation (A, B) The levels of proliferative response of human peripheral blood lymphocytes (PBMCs) after 1-day pretreatment with different concentrations of AD2900, AD2750, YZ138, YZ158, and YZ297 (A) or AD2900, FTY720, and SEW2871 (B) were tested by human allogeneic mixed lymphocyte reaction (MLR) assay, followed by a [3H] thymidine incorporation analysis. (C) Apoptosis of AD2900-treated activated PBMCs was tested by AnnexinV-propidium iodide (PI) FACS analysis following 1-day AD2900 pretreatment and MLR. All the samples were compared to the untreated PBMC control. (D) IFN-γ secretion from activated PBMCs was tested by ELISA following a 1-day AD2900 pretreatment in MLR. On the 5th day of hMLR, supernatants were collected and assayed for the level of IFN-γ. (E) Jurkat cell viability after a 1-day treatment with different concentrations of AD2900, FTY720, and SEW2871 was tested by XTT viability assay. (F) H9, CEM/C1, and Molt4 cell viability after a 1-day treatment with different concentrations of AD2900 was tested by XTT viability assay. Graphs summarize the results of at least three independent experiments. Results of Student’s t-test: *(P < 0.05, two-tailed test), ** (P < 0.01, two-tailed test), *** (P < 0.001, two-tailed test), **** (P < 0.0001, two-tailed test). […]

Jurkat cell line = test: XTT viability assay, Jurkat; details: 1-day treatment
Protocol: as §1

IFN-γ = IFN-γ secretion from activated PBMCs, ELISA; details: 1-day pretreatment, 5th day of MLR
Protocol: as §1, with “assay.” for “assay. (F) H9, CEM/C1, and Molt4 cell viability after a 1-day treatment with different concentrations of AD2900 was tested by XTT viability assay. Graphs summarize the results of at least three independent experiments. Results of Student’s t-test: *(P < 0.05, two-tailed test), ** (P < 0.01, two-tailed test), *** (P < 0.001, two-tailed test), **** (P < 0.0001, two-tailed test).”
Human PBLs were collected from human whole blood collected from healthy donors. […] For the thymidine incorporation assay, after 4 days of co-culture, cells were pulsed with ^3H-thymidine at 1 μCi (0.037MBq) per well (PerkinElmer, MA, USA) for 16 additional hours and then harvested onto glass-fiber filters. ^3H-thymidine incorporation was measured using Top Count. […]

CCR7-expressing PBMCs = test: CCR7 surface expression on PBMCs, FACS; details: 100 nM, 30-min treatment
Protocol: Figure 3 AD2900 downregulates the percentage of S1P1- and CCR7-expressing cells in PBMCs (A, B) The percentages of S1P1-positive PBMCs after the treatment with different concentrations of AD2900, FTY720, or SEW2871 and at different time points were examined by FACS analysis. S1P1 expression was tested in PBMCs after a 30-min treatment with AD2900 at different concentrations (A) or after a 30-min or 60-min treatment with 100 nM AD2900, FTY720, or SEW2871 (B). (C) The percentage of CCR7-positive PBMCs was tested by FACS analysis after a 30-min treatment with 100 nM AD2900, FTY720, or SEW2871. All the significances are compared to untreated PBMCs. Results summarize the results of at least four independent experiments. Results of Student’s t-test: *(P < 0.05, two-tailed test), ** (P < 0.01, two-tailed test), *** (P < 0.001, two-tailed test), **** (P < 0.0001, two-tailed test).
CCR7 is known as a lymph node homing receptor, and it is also involved in lymphocyte recirculation. Together with S1P1, CCR7 controls the circulation of lymphocytes between the SLOs and the blood or lymph. We therefore examined the effect of AD2900 on the level of CCR7-surface-expressing PBMCs.
Human PBMCs: For the apoptosis test, anti-AnnexinV-FITC (BD Biosciences, CA, USA) was used. […]

CCCCCCCCCCCCCCCCNC(CO)(CO)CO [AD2900] was tested, and the “cell viability, CEM/C1” value (CEM/C1) was “reduced cell viability could be detected even at lower concentrations”, the “concentrations leading to reduced viability of Jurkat cells” value (Jurkat cell line) was “higher than 10 μM” and the “effect on Jurkat viability compared to FTY720 and SEW2817” value (Jurkat cell line) was “lower than that with FTY720 treatment and higher than that with SEW2817”. The “IFN-γ concentrations in the supernatant” value (IFN-γ) was “reduced level” and the “reduction of the normal percentage of CCR7-expressing cell population” value (CCR7-expressing PBMCs) was 22% ± 5%.

Source: publication PMC5581131, “The novel sphingosine-1-phosphate receptors antagonist AD2900 affects lymphocyte activation and inhibits T-cell entry into the lymph nodes” (Oncotarget, 2017)
